pIC50: −log10 of the molar value.
Tests used:
[1] = target: T1, WRN [UniPro: Q14191 (WRN_HUMAN), N500-C946] (Homo sapiens (Human), UniProt Q14191); assay: WRN ATPase assay (ADP-Glo); assay type: biochemical; conditions: WRN enzymatic activity assay
Description: WRN ATPase assay was initiated to evaluate potential inhibitory effect of compounds for ATP hydrolysis activity of WRN protein. WRN [UniPro: Q14191 (WRN_HUMAN), N500-C946] was expressed and purified in insect system and stored at −80° C. in aliquots. […] ADP quantity produced from ATP hydrolysis by WRN catalytic reaction was measured using a commercially available ADP-Glo Assay (ADP-Glo™ Kinase Assay from Promega, 10000 assays, #V9102). […] Compounds dissolved in DMSO (Sigma, D8418) were plated into a 96-well intermediate plate (BioFil, VWP-032-096) for 3-fold serial titration for 10 points using DMSO, and well-to-well transfer the titrated compounds into another 96-well intermediate plate including assay buffer in advance. Shake the 96-well intermediate plate at 600 rpm for 10 min to fully mix. Specifically, a 4× working mixture of WRN was diluted to a concentration of 8 nM in assay buffer. […] After centrifuging at 1000 rpm and shaking at 500 rpm, the assay plate was pre-incubated for 30 min. Then, 5 μL 2×FORKF DNA and ATP working mixture was dispensed into assay plate. Plate was sealed, centrifuged and incubated for an additional 40 min. at 37° C. The reaction was stopped with the addition of 10 μL of the first ADP-Glo reagent and incubated for 40 min. to remove the excess amount of ATP. Afterwards, 20 μL of ATP detection reagent was added and incubated for 30 min. before reading. Luminescence output was recorded using BMG CLARIO star plus reader. Each concentration of compound was tested in duplicates in the assay plate. Average luminescence signal of high control (Wells with 1% DMSO) was calculated as High Control (HC). Average luminescence signal of low control (Wells with no WRN protein) was calculated as Low control (LC).
(§1) IC50 values were determined by fitting the data to the standard 4 parameters with Hill Slope using GraphPad Prism software.

[2] = target: T1, WRN [UniPro: Q14191 (WRN_HUMAN), N500-C946]; assay: WRN unwinding assay (FORKF DNA, fluorescence); assay type: biochemical; conditions: Table 14
Description: WRN unwinding assay was initiated to evaluate potential inhibitory effect of compounds for WEN helicase activity. WRN [UniPro: Q14191 (WRN_HUMAN), N500-C946] was expressed and purified in insect system and stored at −80° C. in aliquots. […] Compounds dissolved in DMSO (Sigma, D8418) were plated into a 96-well intermediate plate (BioFil, VWP-032-096) for 3-fold serial titration for 10 points using DMSO, and well-to-well transfer the titrated compounds into another 96-well intermediate plate including assay buffer in advance. Shake the 96-well intermediate plate at 600 rpm for 10 min. to fully mix. Specifically, a 3× working mixture of WRN was diluted to a concentration of 60 nM in assay buffer. […] After centrifuging at 1000 rpm and shaking at 500 rpm, the assay plate was pre-incubated for 30 min. Then, […] 3×FORKF DNA and ATP working mixture was dispensed into assay plate. Plate was sealed, centrifuged and incubated for an additional 40 min. at 25° C. […] Each concentration of compound was tested in duplicates in the assay plate. Average fluorescence signal of high control (Wells with 1% DMSO) was calculated as High Control (HC). Average fluorescence signal of low control (Wells with no WRN protein) was calculated as Low control (LC).
as §1

T1 sequence (Q14191 500-946): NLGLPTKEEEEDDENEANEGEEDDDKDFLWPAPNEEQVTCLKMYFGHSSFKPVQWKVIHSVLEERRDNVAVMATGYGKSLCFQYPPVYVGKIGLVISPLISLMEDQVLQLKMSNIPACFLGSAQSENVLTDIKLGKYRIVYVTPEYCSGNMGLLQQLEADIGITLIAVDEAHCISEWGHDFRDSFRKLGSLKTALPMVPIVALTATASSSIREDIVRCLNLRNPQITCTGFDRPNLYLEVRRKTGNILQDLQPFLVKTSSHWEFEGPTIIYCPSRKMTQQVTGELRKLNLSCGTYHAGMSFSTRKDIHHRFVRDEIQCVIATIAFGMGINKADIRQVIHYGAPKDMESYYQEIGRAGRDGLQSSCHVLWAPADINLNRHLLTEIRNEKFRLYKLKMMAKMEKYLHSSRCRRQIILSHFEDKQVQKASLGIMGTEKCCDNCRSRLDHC

Q: CCc1c(N2CCN(C(=O)c3cnc4[nH]cnc4c3O)CC2)c(=O)n2nc(C3=CCOCC3)nc2n1CC(=O)Nc1ccc(C(F)(F)F)cc1Cl [Example 57, N-(2-Chloro-4-(trifluoromethyl)phenyl)-2-(2-(3,6-dihydro-2H-pyran-4-yl)-5-ethyl-6-(4-(7-hydroxy-3H-imidazo[4,5-b]pyridine-6-carbonyl)piperazin-1-yl)-7-oxo-[1,2,4]triazolo[1,5-a]pyrimidin-4(7H)-yl)acetamide] was tested. Which pIC50 [1] did it give?
A: Its pIC50 is > 7.00.

Q: And the pIC50 [2]?
A: The pIC50 was > 7.00.

Q: How did the pIC50 [1] turn out when CCc1c(N2CCN(C(=O)c3ncc4nc(Cl)sc4c3O)CC2)c(=O)n2nc(C3=CCOCC3)nc2n1CC(=O)Nc1ccc(C(F)(F)F)cc1F [Example 199, 2-(6-(4-(2-Chloro-7-hydroxythiazolo[4,5-c]pyridine-6-carbonyl)piperazin-1-yl)-2-(3,6-dihydro-2H-pyran-4-yl)-5-ethyl-7-oxo-[1,2,4]triazolo[1,5-a]pyrimidin-4(7H)-yl)-N-(2-fluoro-4-(trifluoromethyl)phenyl)acetamide] was run?
A: The pIC50 was > 7.00.

Q: And the pIC50 [2]?
A: The pIC50 was > 7.00.

Q: What does the source list for CCc1c(N2CCN(C(=O)C(=O)Nc3nc(C)cs3)CC2)c(=O)n2nc(C3=CCOCC3)nc2n1CC(=O)Nc1ccc(C(F)(F)F)cc1Cl [Example 347, 2-(4-(4-(2-((2-Chloro-4-(trifluoromethyl)phenyl)amino)-2-oxoethyl)-2-(3,6-dihydro-2H-pyran-4-yl)-5-ethyl-7-oxo-4,7-dihydro-[1,2,4]triazolo[1,5-a]pyrimidin-6-yl)piperazin-1-yl)-N-(4-methylthiazol-2-yl)-2-oxoacetamide]?
A: pIC50 [1]: > 7.00; pIC50 [2]: > 7.00

Q: How did the pIC50 [1] turn out when CCc1c(N2CCN(C(=O)C(=O)Nc3ncco3)CC2)c(=O)n2nc(C3=CCOCC3)nc2n1CC(=O)Nc1ccc(C(F)(F)F)cc1Cl [Example 226, 2-(4-(4-(2-((2-Chloro-4-(trifluoromethyl)phenyl)amino)-2-oxoethyl)-2-(3,6-dihydro-2H-pyran-4-yl)-5-ethyl-7-oxo-4,7-dihydro-[1,2,4]triazolo[1,5-a]pyrimidin-6-yl)piperazin-1-yl)-N-(oxazol-2-yl)-2-oxoacetamide] was run?
A: Its pIC50 is > 7.00.

Q: And the pIC50 [2]?
A: Its pIC50 is > 7.00.

Q: What does the source list for CCc1c(N2CCN(C(=O)c3ncc(F)cc3N)CC2)c(=O)n2nc(C3=CCOCC3)nc2n1CC(=O)Nc1ccc(C(F)(F)F)cc1Cl [Example 46, 2-(6-(4-(3-Amino-5-fluoropicolinoyl)piperazin-1-yl)-2-(3,6-dihydro-2H-pyran-4-yl)-5-ethyl-7-oxo-[1,2,4]triazolo[1,5-a]pyrimidin-4(7H)-yl)-N-(2-chloro-4-(trifluoromethyl)phenyl)acetamide]?
A: pIC50 [1]: 6.00 to 7.00; pIC50 [2]: > 7.00

Q: With CCc1c(N2CCN(C(=O)Nc3c(C(F)(F)F)ncn3Cc3ccc(OC)cc3)CC2)c(=O)n2nc(C3=CCOCC3)nc2n1CC(=O)Nc1ccc(C(F)(F)F)cc1Cl [Example 26, 4-(4-(2-((2-Chloro-4-(trifluoromethyl)phenyl)amino)-2-oxoethyl)-2-(3,6-dihydro-2H-pyran-4-yl)-5-ethyl-7-oxo-4,7-dihydro-[1,2,4]triazolo[1,5-a]pyrimidin-6-yl)-N-(1-(4-methoxybenzyl)-4-(trifluoromethyl)-1H-imidazol-5-yl)piperazine-1-carboxamide] as the molecule, how does the pIC50 [2] read?
A: Its pIC50 is < 6.00.

Q: With CCc1c(N2CCN(C(=O)CNC(=O)c3ccccc3F)CC2)c(=O)n2nc(C3=CCOCC3)nc2n1CC(=O)Nc1nnc(C(F)(F)F)s1 [Example 155, N-(2-(4-(2-(3,6-Dihydro-2H-pyran-4-yl)-5-ethyl-7-oxo-4-(2-oxo-2-((5-(trifluoromethyl)-1,3,4-thiadiazol-2-yl)amino)ethyl)-4,7-dihydro-[1,2,4]triazolo[1,5-a]pyrimidin-6-yl)piperazin-1-yl)-2-oxoethyl)-2-fluorobenzamide] as the molecule, how does the pIC50 [2] read?
A: The pIC50 was < 6.00.

Q: How did the pIC50 [2] turn out when CCc1c(N2CCN(C(=O)CN(C)C(=O)c3ccccc3)CC2)c(=O)n2nc(C3=CCOCC3)nc2n1CC(=O)Nc1ccc(C(F)(F)F)cc1Cl [Example 135, N-(2-(4-(4-(2-((2-Chloro-4-(trifluoromethyl)phenyl)amino)-2-oxoethyl)-2-(3,6-dihydro-2H-pyran-4-yl)-5-ethyl-7-oxo-4,7-dihydro-[1,2,4]triazolo[1,5-a]pyrimidin-6-yl)piperazin-1-yl)-2-oxoethyl)-N-methylbenzamide] was run?
A: The pIC50 was > 7.00.

Q: With CCNS(=O)(=O)N1CCN(c2c(CC)n(CC(=O)Nc3ccc(C(F)(F)F)cc3Cl)c3nc(C4=CCOCC4)nn3c2=O)CC1 [Example 33, N-(2-Chloro-4-(trifluoromethyl)phenyl)-2-(2-(3,6-dihydro-2H-pyran-4-yl)-5-ethyl-6-(4-(N-ethylsulfamoyl)piperazin-1-yl)-7-oxo-[1,2,4]triazolo[1,5-a]pyrimidin-4(7H)-yl)acetamide] as the molecule, how does the pIC50 [2] read?
A: Its pIC50 is 6.00 to 7.00.

Q: How did the pIC50 [2] turn out when CCc1c(N2CCN(C(=O)CNC(=O)c3ccccc3)CC2)c(=O)n2nc(Br)nc2n1CC(=O)Nc1ccc(C(F)(F)F)cc1Cl [Example 230, N-(2-(4-(2-Bromo-4-(2-((2-chloro-4-(trifluoromethyl)phenyl)amino)-2-oxoethyl)-5-ethyl-7-oxo-4,7-dihydro-[1,2,4]triazolo[1,5-a]pyrimidin-6-yl)piperazin-1-yl)-2-oxoethyl)benzamide] was run?
A: The pIC50 was 6.00 to 7.00.

Q: CCc1c(N2CCN(C(=O)/C=C/c3cnccc3O)CC2)c(=O)n2nc(C3=CCOCC3)nc2n1CC(=O)Nc1ccc(C(F)(F)F)cc1F [Example 328, (E)-2-(2-(3,6-Dihydro-2H-pyran-4-yl)-5-ethyl-6-(4-(3-(4-hydroxypyridin-3-yl)acryloyl)piperazin-1-yl)-7-oxo-[1,2,4]triazolo[1,5-a]pyrimidin-4(7H)-yl)-N-(2-fluoro-4-(trifluoromethyl)phenyl)acetamide] was tested. Which pIC50 [2] did it give?
A: Its pIC50 is 6.00 to 7.00.

Q: CCc1c(N2CC3CN(C(=O)CNC(=O)c4ccccc4F)CC3C2)c(=O)n2nc(C3=CCOCC3)nc2n1CC(=O)Nc1ccc(C(F)(F)F)cc1Cl (stereo not drawn) [Example 140, N-(2-(5-(4-(2-((2-Chloro-4-(trifluoromethyl)phenyl)amino)-2-oxoethyl)-2-(3,6-di hydro-2H-pyran-4-yl)-5-ethyl-7-oxo-4,7-dihydro-[1,2,4]triazolo[1,5-a]pyrimidin-6-yl)hexahydropyrrolo[3,4-c]pyrrol-2(1H)-yl)-2-oxoethyl)-2-fluorobenzamide] was tested. Which pIC50 [2] did it give?
A: The pIC50 was < 6.00.

Q: How did the pIC50 [2] turn out when CCc1c(N2CCN(C(=O)CNC(=O)c3ccccc3F)CC2)c(=O)n2nc(C3=CCOCC3)nc2n1CC(=O)Nc1sc(C)cc1Cl [Example 151, N-(2-(4-(4-(2-((3-chloro-5-methylthiophen-2-yl)amino)-2-oxoethyl)-2-(3,6-dihydro-2H-pyran-4-yl)-5-ethyl-7-oxo-4,7-dihydro-[1,2,4]triazolo[1,5-a]pyrimidin-6-yl)piperazin-1-yl)-2-oxoethyl)-2-fluorobenzamide] was run?
A: Its pIC50 is 6.00 to 7.00.

Q: How did the pIC50 [2] turn out when CCc1c(N2CCN(C(=O)c3cc4c(OC)ccnc4[nH]3)CC2)c(=O)n2nc(C3=CCOCC3)nc2n1CC(=O)Nc1ccc(C(F)(F)F)cc1Cl [Example 302, N-(2-Chloro-4-(trifluoromethyl)phenyl)-2-(2-(3,6-dihydro-2H-pyran-4-yl)-5-ethyl-6-(4-(4-methoxy-1H-pyrrolo[2,3-b]pyridine-2-carbonyl)piperazin-1-yl)-7-oxo-[1,2,4]triazolo[1,5-a]pyrimidin-4(7H)-yl)acetamide] was run?
A: Its pIC50 is 6.00 to 7.00.

Q: With CCc1c(N2CCN(C(=O)C(C)O)CC2)c(=O)n2nc(C3=CCOCC3)nc2n1CC(=O)Nc1ccc(C(F)(F)F)cc1Cl (stereo not drawn) [Example 12, N-(2-Chloro-4-(trifluoromethyl)phenyl)-2-(2-(3,6-dihydro-2H-pyran-4-yl)-5-ethyl-6-(4-(2-hydroxypropanoyl)piperazin-1-yl)-7-oxo-[1,2,4]triazolo[1,5-a]pyrimidin-4(7H)-yl)acetamide] as the molecule, how does the pIC50 [2] read?
A: The pIC50 was 6.00 to 7.00.

Q: How did the pIC50 [2] turn out when CCc1c(N2CCN(C(=O)CNC(=O)c3ccccc3F)CC2)c(=O)n2nc(C3=CCOCC3)nc2n1CC(=O)Nc1ccc(S(F)(F)(F)(F)F)cc1C [Example 145, N-(2-(4-(2-(3,6-Dihydro-2H-pyran-4-yl)-5-ethyl-4-(2-((2-methyl-4-(pentafluoro-16-sulfanyl)phenyl)amino)-2-oxoethyl)-7-oxo-4,7-dihydro-[1,2,4]triazolo[1,5-a]pyrimidin-6-yl)piperazin-1-yl)-2-oxoethyl)-2-fluorobenzamide] was run?
A: Its pIC50 is 6.00 to 7.00.

Source: patent US20260015358A1, “BICYCLIC DERIVATIVES, COMPOSITIONS AND USES THEREOF” (Danatlas Pharmaceuticals Co., Ltd., priority 2023, published 2026)
